One test deals with 15-PGDH (Homo sapiens (Human), UniProt P15428). The experiment in a line: 15-PGDH inhibitory activity (NADH at 340 nm). The class given is biochemical. The following applies: concentration inhibiting 50% of 15-PGDH activity; purified 15-PGDH, 21 μM PGE2, 0.25 mM NAD+. The procedure: The 15-PGDH cDNA plasmid containing the BamHI of the pGEX-2T expression vector and EcoRI restriction enzyme sites was transfected into E. coli BL-21 LysS by using conventional methods used in the art. Then, the transfected cells were cultured in an LB medium (500 ml) containing 50 μg/ml of ampicillin at a temperature of 37° C. and at a rate of 220 rpm until the OD600 reached 0.6. Then, isopropyl beta-D-thiogalactoxide (1 mM) was added and the cells were further cultured at the temperature of 25° C. for 12 hours. The cells were then centrifuged at the gravity of 4,000 g for 30 minutes at a temperature of 4° C. to collect a cell pellet. The cell pellet was dissolved in 20 ml of cell lysis buffer (containing 1×PBS buffer (pH 7.4): 1 mM EDTA and 0.1 mM DTT) and sonicated at a temperature of 4° C. for 14×10 s. The digested cells were centrifuged at the gravity of 4,000 g for 20 minutes at a temperature of 4° C. The supernatant was then slowly loaded onto a glutathione-sepharose 4B column equilibrated at a temperature of 4° C. with cell lysis buffer [containing 1×PBS buffer (pH 7.4), 1 mM EDTA, and 0.1 mM DTT]. Washing was performed thereon by using a dissolution buffer until the OD280 reached 0.005 or less. Then, 15-PGDH was eluted from the glutathione-sepharose 4B column at room temperature for 5 minutes by using an elution buffer [containing 50 mM Tris-HCl (pH 8.0), 10 mM reduced glutathione, 1 mM EDTA, and 0.1 mM DTT). The concentration of the purified enzyme was measured, and the purification level thereof was confirmed by SDS-PAGE.
Sequence of 15-PGDH (P15428 whole entry): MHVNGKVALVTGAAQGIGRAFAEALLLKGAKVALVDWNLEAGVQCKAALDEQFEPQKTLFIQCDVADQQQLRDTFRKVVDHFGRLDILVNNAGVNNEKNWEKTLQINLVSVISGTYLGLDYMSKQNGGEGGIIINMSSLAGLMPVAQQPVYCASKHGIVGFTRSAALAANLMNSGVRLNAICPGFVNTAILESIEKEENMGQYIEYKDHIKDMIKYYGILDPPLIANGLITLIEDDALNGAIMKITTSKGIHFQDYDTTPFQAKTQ
That is, the cells were treated with a solution including 50 mM Tris-HCl (pH 7.5), 0.1 mM DTT, 0.25 mM (NAD+), 10 μg of purified 15-PGDH enzyme, 21 μM PGE2. and various concentrations (0.0001 μM to 64 μM) of the derivative compound according to the present disclosure. In this case, the total volume of the solution was 2 ml. Then, the absorbance of the reaction mixture was recorded at the wavelength of 340 nm. To measure the activity of the derivative compounds according to the present disclosure, which is an inhibitor of 15-PGDH, the average value of NADH absorbance at 340 nm at various concentrations was obtained from a standard curve.

For the next test, the system named is A549 cells. The test can be described thus: Measurement of PGE2 concentration in A549 cell medium (ELISA). The class given is cell-based, human. Particulars: for Increment %: PGE2 concentration versus PBS control, 5 μM, 12 hours; for PGE2 concentration: inhibitor 5 μM, medium collected after 12 hours, ELISA. As to the method: A549 cells were subcultured in RPMI 1640 medium (containing+8% fetal bovine serum (FBS) and antibiotic-antimycotic (AA)) for one week, and then, inoculated in a 6-well plate at 2.5×10^5 cells/mL (5×10^5 cells/well) and cultured for 24 hours in a 5% CO2 incubator at a temperature of 37° C. A549 cells are adenocarcinomic human alveolar basal epithelial cells which are derived from lung tissues. When cells were grown to about 80% confluence, a 15-PGDH inhibitor in 1×PBS buffer was injected at a concentration of 5 μM. To compare the results, the same amount of 1×PBS buffer was injected into a negative control, and, the treated cells were cultured in 5% CO2 incubator. After 12 hours, the medium was collected and the collected medium was assayed to measure PGE2 concentration by using an ELISA Kit (Abcam) according to the manufacturer's instructions. The concentration may be expressed as an exact value by plotting the calibration curve by using the absorbance value after diluting the standard in the medium by concentration.
On the technique in general: An ELISA detects its analyte on a solid surface through an enzyme-linked reagent.

The compound `O=C1NC(=O)/C(=C/c2ccc(OC(=O)C3CCC3)c(Cl)c2)S1` [Compound 2, (Z)-2-chloro-4-((2,4-dioxothiazolidin-5-ylidene)methyl)phenyl cyclobutanecarboxylate] came in with an IC50 against 15-PGDH of 782 nM. In the test on A549 cells, the Increment % was determined as 9.96% and the PGE2 concentration came out at 301.0364 pg/mL.

As for `O=C1NC(=O)/C(=C/c2ccc(OC(=O)C3CCCC3)c(Cl)c2)S1` [Compound 3, (Z)-2-chloro-4-((2,4-dioxothiazolidin-5-ylidene)methyl)phenyl cyclopentanecarboxylate], at 15-PGDH, the IC50 stood at 196 nM. Also, in the test on A549 cells, the Increment % was −30.1% and the PGE2 concentration was found to be 191.3645 pg/mL.

As for `O=C(CC1CCCC1)Oc1ccc(/C=C2\SC(=O)NC2=O)cc1Cl` [Compound 4, (Z)-2-chloro-4-((2,4-dioxothiazolidin-5-ylidene)methyl)phenyl 2-cyclopentylacetate], the IC50 against 15-PGDH came out at 78.3 nM. Also, in the test on A549 cells, the Increment % is given as 103.32% and the PGE2 concentration is 556.6271 pg/mL.

In turn, `O=C(CCC1CCCC1)Oc1ccc(/C=C2\SC(=O)NC2=O)cc1Cl` [Compound 5, (Z)-2-chloro-4-((2,4-dioxothiazolidin-5-ylidene)methyl)phenyl 3-cyclopentylpropanoate] showed an IC50 at 15-PGDH of 30.5 nM. Moreover, in the test with A549 cells, the Increment % came out at 83.07% and the PGE2 concentration turned out to be 501.1889 pg/mL.

As to `O=C1NC(=O)/C(=C/c2ccc(OC(=O)C3CCCCC3)c(Cl)c2)S1` [Compound 6, (Z)-2-chloro-4-((2,4-dioxothiazolidin-5-ylidene)methyl)phenyl cyclohexanecarboxylate], the IC50 at 15-PGDH was 137 nM. Further, in the test with A549 cells, the Increment % is 27.71% and the PGE2 concentration is 349.6304 pg/mL.

Compound `O=C(CC1CCCCC1)Oc1ccc(/C=C2\SC(=O)NC2=O)cc1Cl` [Compound 7, (Z)-2-chloro-4-((2,4-dioxothiazolidin-5-ylidene)methyl)phenyl 2-cyclohexylacetate] had an IC50 against 15-PGDH of 23.8 nM. Also, in the test on A549 cells, the Increment % is 20.36% and the PGE2 concentration was 329.5084 pg/mL.

As for `O=C(CCC1CCCCC1)Oc1ccc(/C=C2\SC(=O)NC2=O)cc1Cl` [Compound 8, (Z)-2-chloro-4-((2,4-dioxothiazolidin-5-ylidene)methyl)phenyl 3-cyclohexylpropanoate], in the test on A549 cells, the Increment % stood at 221.32% and the PGE2 concentration came out at 879.6746 pg/mL.

As to `O=C(CCCC1CCCCC1)Oc1ccc(/C=C2\SC(=O)NC2=O)cc1Cl` [Compound 9, (Z)-2-chloro-4-((2,4-dioxothiazolidin-5-ylidene)methyl)phenyl 4-cyclohexylbutanoate], it took 20.2 nM to reach half-maximal inhibition at 15-PGDH (IC50). In addition, in the test on A549 cells, the Increment % worked out at 189.34% and the PGE2 concentration worked out at 792.1232 pg/mL.

`O=C(CCCCC1CCCCC1)Oc1ccc(/C=C2\SC(=O)NC2=O)cc1Cl` [Compound 10, (Z)-2-chloro-4-((2,4-dioxothiazolidin-5-ylidene)methyl)phenyl 5-cyclohexylpentanoate] showed an IC50 against 15-PGDH of 31.7 nM. In the test on A549 cells, the Increment % stood at 89.99% and the PGE2 concentration is 520.1337 pg/mL.

Turning to `O=C(O)c1ccccc1.O=C1NC(=O)/C(=C/c2ccc(OC(=O)c3ccccc3)c(Cl)c2)S1` [Compound 11, (Z)-2-chloro-4-((2,4-dioxothiazolidin-5-ylidene)methyl)phenyl benzoate], the IC50 against 15-PGDH stood at 31.9 nM. Further, in the test with A549 cells, the Increment % is listed as −78.32% and the PGE2 concentration worked out at 25.95 pg/mL.

On 15-PGDH, `O=C(Cc1ccccc1)Oc1ccc(/C=C2\SC(=O)NC2=O)cc1Cl` [Compound 12, (Z)-2-chloro-4-((2,4-dioxothiazolidin-5-ylidene)methyl)phenyl 2-phenylacetate] gave an IC50 of 63.5 nM. Also, in the test with A549 cells, the Increment % is −34.89% and the PGE2 concentration turned out to be 77.92 pg/mL.

As to `O=C(CCc1ccccc1)Oc1ccc(/C=C2\SC(=O)NC2=O)cc1Cl` [Compound 13, (Z)-2-chloro-4-((2,4-dioxothiazolidin-5-ylidene)methyl)phenyl 3-phenylpropanoate], the IC50 against 15-PGDH was determined as 41.8 nM. In addition, in the test with A549 cells, the Increment % was determined as 16.39% and the PGE2 concentration was determined as 139.2902 pg/mL.

For the compound `O=C(CCC1CCCCC1)Oc1ccc(/C=C2\SC(=O)NC2=O)cc1Br` [Compound 23, (Z)-2-bromo-4-((2,4-dioxothiazolidin-5-ylidene)methyl)phenyl 3-cyclohexylpropanoate], in the test with A549 cells, the Increment % came out at 311.02% and the PGE2 concentration was 1040.03 pg/mL.

As to `COc1cc(/C=C2\SC(=O)NC2=O)ccc1OC(=O)CCC1CCCCC1` [Compound 38, (Z)-4-((2,4-dioxothiazolidin-5-ylidene)methyl)-2-methoxyphenyl 3-cyclohexylpropanoate], in the test with A549 cells, the Increment % amounted to 323.99% and the PGE2 concentration came to 859.6813 pg/mL.

As to `CCOc1cc(/C=C2\SC(=O)NC2=O)ccc1OC(=O)CCC1CCCCC1` [Compound 53, (Z)-4-((2,4-dioxothiazolidin-5-ylidene)methyl)-2-ethoxyphenyl 3-cyclohexylpropanoate], in the test with A549 cells, the Increment % was found to be 189.34% and the PGE2 concentration amounted to 792.73 pg/mL.

Regarding `O=C1NC(=O)/C(=C/c2ccc(OC(=O)C3CCC3)cc2)S1` [Compound 62, (Z)-4-((2,4-dioxothiazolidin-5-ylidene)methyl)phenyl cyclobutanecartboxylate], in the test with A549 cells, the Increment % amounted to 12.13% and the PGE2 concentration came to 178.4361 pg/mL.

`O=C(CCC1CCCCC1)Oc1ccc(/C=C2\SC(=O)NC2=O)cc1` [Compound 68, (Z)-4-((2,4-dioxothiazolidin-5-ylidene)methyl)phenyl 3-cyclohexylpropanoate]: in the test on A549 cells, the Increment % amounted to 97.45% and the PGE2 concentration was determined as 255.0535 pg/mL.

Take `O=C1NC(=O)/C(=C/c2ccc(OC(=O)c3ccccc3)cc2)S1` [Compound 71, (Z)-4-((2,4-dioxothiazolidin-5-ylidene)methyl)phenyl benzoate]: in the test with A549 cells, the Increment % is listed as −58.38% and the PGE2 concentration was 53.76 pg/mL.

As for `O=C1NC(=O)/C(=C/c2cccc(OC(=O)C3CCCCC3)c2Cl)S1` [Compound 81, (Z)-2-chloro-3-((2,4-dioxothiazolidin-5-ylidene)methyl)phenyl cyclohexanecarboxylate], in the test with A549 cells, the Increment % was 10.32% and the PGE2 concentration is 232.1268 pg/mL.

Take `O=C(CCC1CCCCC1)Oc1cccc(/C=C2\SC(=O)NC2=O)c1Cl` [Compound 83, (Z)-2-chloro-3-((2,4-dioxothiazolidin-5-ylidene)methyl)phenyl 3-cyclohexylpropanoate]: in the test on A549 cells, the Increment % stood at 201.32% and the PGE2 concentration came to 634.0143 pg/mL.

`O=C(CCC1CCCC1)Oc1ccc(/C=C2\SC(=O)NC2=O)c(Cl)c1` [Compound 95, (Z)-3-chloro-4-((2,4-dioxothiazolidin-5-ylidene)methyl)phenyl 3-cyclopentylpropanoate]: in the test with A549 cells, the Increment % is on record as 113.4574% and the PGE2 concentration was 238.3412 pg/mL.

As to `O=C(CCC1CCCCC1)Oc1ccc(/C=C2\SC(=O)NC2=O)c(Cl)c1` [Compound 98, (Z)-3-chloro-4-((2,4-dioxothiazolidin-5-ylidene)methyl)phenyl 3-cyclohexylpropanoate], in the test with A549 cells, the Increment % is on record as 138.7487% and the PGE2 concentration was determined as 266.5808 pg/mL.

Consider `O=C(CCCC1CCCCC1)Oc1ccc(/C=C2\SC(=O)NC2=O)c(Cl)c1` [Compound 99, (Z)-3-chloro-4-((2,4-dioxothiazolidin-5-ylidene)methyl)phenyl 4-cyclohexylbutanoate], for which, in the test with A549 cells, the Increment % was 66.7717% and the PGE2 concentration was 186.2131 pg/mL.

As a reminder, the IC50 is the midpoint of a concentration-inhibition curve. Read a high IC50 as a need for much substance.

For the origin of these results see patent US10787425B2, “Thiazolidinedione derivative and use thereof” (INDUSTRY-ACADEMIC COOPERATION FOUNDATION CHOSUN UNIVERSITY, priority 2016, dated 2020).
